This test deals with 299254-011-R-J1-PDC complex spheroids viability. The experiment in a line: Anticancer human tumor 299254-011-R-J1-PDC patient-derived melanoma cell line growth inhibition [GQUAD]. Conditions: for viability, T/C: stronger effect = lower value. From the text: DNA G-quadruplex Stabilizer Agents in Combinations in Complex Spheroids
A high-throughput screen of multi-cell type tumor spheroids was designed to identify active combinations of DNA G-quadruplex stabilizer agents and targeted small molecules. Complex spheroids include a stromal component modeled by human endothelial cells (HUVEC) and fibroblasts modeled by human mesenchymal stem cells (MSCs). The concentration ranges selected for each drug and investigational agent were based upon clinically achievable concentrations if the clinical Cmax of the agent was known.
Compounds. The drugs and investigational agents: pidnarulex (CX-5461; NSC782164), APTO-253 (NSC789042), BRACO-19 (NSC847499), peposertib (NSC802822), ceralasertib (NSC780249), elimusertib (NSC800525), camonsertib (NSC841442), AZD-1390 (NSC803789), olaparib (NSC753686), talazoparib (NSC767125), ART-558 (NSC835418), sotorasib (NSC818433), MRTX-1133 (NSC836407), SN-38 (NSC673596), topotecan (NSC609699), etoposide (NSC141540), doxorubicin (NSC123127), gemcitabine (NSC613327), 5-fluorouracil (NSC19893), paclitaxel (NSC125973), vemurafenib (NSC761431), panobinostat (NSC761190), R-306465 (JNJ-16241199; NSC773264), adavosertib (NSC754352), TP-3654 (NSC805149), carboplatin (NSC241240), KSQ-4279 (NSC840948), and staurosporine (NSC755774) were obtained from the National Cancer Institute (NCI) Developmental Therapeutics Program Chemical Repository (34). The FDA-approved anticancer drug set is available from the NCI Developmental Therapeutics Program. […] The stock solutions were prepared in dimethyl sulfoxide (DMSO, Sigma-Aldrich, St. Louis, MO, cat. D2650) at 800-fold the tested concentration and stored at -70 degrees C prior to their use. All drugs and investigational agents were tested over a range starting from a high concentration at or near the clinical Cmax and decreasing in half-log increments. If the clinical Cmax for an agent had not been determined, the highest concentration tested was 10 microM.
2.3 Cell Culture. All cells were maintained in an incubator at 37 degrees C and 5% CO2 with 95% humidity. The PDC lines were cultured according to standard operating procedures established by the NCI PDMR. All PDCs were thawed and cultured in Matrigel-coated flasks prepared with a working solution of 1X Ham's F-12 nutrient mix, without supplementation (Invitrogen, cat. 11765054), 100 U/mL penicillin-streptomycin (Invitrogen, cat. 15140122), and 2.5% Matrigel (Corning Inc., cat. 354248) for the first three passages. The 857933-349-R-J2-PDC line was cultured in 6C/Colon 1B media, which includes advanced DMEM/F-12 (Thermo Fisher Scientific, cat. 12634028), 10 mM HEPES (Thermo Fisher Scientific, cat. 15630080), 1X GlutaMAX supplement (Thermo Fisher Scientific, cat. 35050061), 0.1 mg/mL primocin (InvivoGen, cat. ant-pm-2), 10% defined fetal bovine serum, heat inactivated (HyClone Laboratories Inc., cat. SH30070.03HI), 50% L-WRN conditioned media (ATCC, cat. CRL-3276), 1.25 mM N-Acetyl-L-cysteine (Sigma-Aldrich, cat. A9165), 10 mM nicotinamide (Sigma-Aldrich, cat. N0636), 1X B-27 supplement (Thermo Fisher Scientific, cat. 17504044), 1X N-2 supplement (Thermo Fisher Scientific, cat. 17502048), 10 microM Y-27632 dihydrochloride (Tocris Bioscience, cat. 1254), and 50 ng/mL human EGF recombinant protein (Thermo Fisher Scientific, cat. PHG0311). The 485176-168-R4-J1-PDC line was cultured in Panc media, which includes all 6C/Colon 1B media components plus 100 ng/mL human FGF-10 (Thermo Fisher Scientific, cat. 100-26), 500 nM SB-431542 (Selleckchem, cat. S1067), and gastrin (Tocris, cat. 3006).
[…]

[1] abbreviates: curve of first compound, second compound 0.0316 µM.
The mark [2] stands for this setting: curve of first compound, second compound 0.1 µM.
Setting [3] is: curve of first compound, second compound 0.316 µM.
Setting [4] is: curve of first compound, second compound 1 µM.
[5] abbreviates: curve of first compound, second compound 3.16 µM.
[6] abbreviates: curve of first compound, second compound 10 µM.
The mark [7] stands for this setting: second compound 0.0316 µM, first compound 0.0316 µM.
The mark [8] stands for this setting: second compound 0.0316 µM, first compound 0.316 µM.
Where [9] appears, read: second compound 0.1 µM, first compound 0.0316 µM.
Setting [10] is: second compound 0.1 µM, first compound 0.316 µM.
[11] abbreviates: second compound 0.316 µM, first compound 0.0316 µM.
[12] abbreviates: second compound 0.316 µM, first compound 0.316 µM.
Setting [13] is: second compound 1 µM, first compound 0.0316 µM.
[14] abbreviates: second compound 1 µM, first compound 0.316 µM.
Setting [15] is: second compound 3.16 µM, first compound 0.0316 µM.
Where [16] appears, read: second compound 3.16 µM, first compound 0.316 µM.
[17] abbreviates: second compound 10 µM, first compound 0.0316 µM.
The mark [18] stands for this setting: second compound 10 µM, first compound 0.316 µM.

Where “and” joins values, the source holds several entries; their conditions need not be identical. Equal values may be shown once.

Broadly, the IC50 is the concentration needed to halve the response being measured. As a reminder, the viability, T/C is the result in the treated group divided by that in the control group, in per cent.
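Also: spheroids exposed to the agents for seven days before readout.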
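For viability, T/C in this document: percent viability relative to DMSO vehicle control wells = 100%.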

For the molecule `CC(C)(O)C1CCC(Nc2ccc3ncc(-c4cccc(C(F)(F)F)c4)n3n2)CC1` (stereo not given) + Cc1[nH]c2ccc(F)cc2c1-c1nc2c3cccnc3c3ncccc3c2[nH]1, the IC50 is > 10000 nM under setting [1]; > 10000 nM under setting [2]; > 10000 nM under setting [3]; > 10000 nM under setting [4]; > 10000 nM under setting [5]; 2550 nM under setting [6]. Further, the viability, T/C by setting is: under setting [7], 112%; (second compound 0.0316 µM, first compound 0.1 µM) 109%; under setting [8], 124%; (second compound 0.0316 µM, first compound 1 µM) 97.2%; (second compound 0.0316 µM, first compound 3.16 µM) 70.1%; (second compound 0.0316 µM, first compound 10 µM) 111%. In addition, the viability, T/C reads like this: under setting [9], 115%; (second compound 0.1 µM, first compound 0.1 µM) 98.2%; under setting [10], 93.5%; (second compound 0.1 µM, first compound 1 µM) 103%; (second compound 0.1 µM, first compound 3.16 µM) 73.4%; (second compound 0.1 µM, first compound 10 µM) 111%. The viability, T/C by setting is: under setting [11], 108%; (second compound 0.316 µM, first compound 0.1 µM) 117%; under setting [12], 115%; (second compound 0.316 µM, first compound 1 µM) 109%; (second compound 0.316 µM, first compound 3.16 µM) 82.7%; (second compound 0.316 µM, first compound 10 µM) 99.4%. The viability, T/C by setting is: under setting [13], 85.2%; (second compound 1 µM, first compound 0.1 µM) 109%; under setting [14], 110%; (second compound 1 µM, first compound 1 µM) 104%; (second compound 1 µM, first compound 3.16 µM) 68.2%; (second compound 1 µM, first compound 10 µM) 105%. Also, the viability, T/C is, setting by setting: under setting [15], 93%; (second compound 3.16 µM, first compound 0.1 µM) 102%; under setting [16], 97%; (second compound 3.16 µM, first compound 1 µM) 88%; (second compound 3.16 µM, first compound 3.16 µM) 51%; (second compound 3.16 µM, first compound 10 µM) 65.3%. In addition, the viability, T/C under setting [17] was 105%; the viability, T/C (second compound 10 µM, first compound 0.1 µM) was 95.9%; the viability, T/C under setting [18] is 103%; the viability, T/C (second compound 10 µM, first compound 1 µM) was 88%; the viability, T/C (second compound 10 µM, first compound 3.16 µM) was 35.1%; the viability, T/C (second compound 10 µM, first compound 10 µM) was 47.6%.

As for `C=CCn1c(=O)c2cnc(Nc3ccc(N4CCN(C)CC4)cc3)nc2n1-c1cccc(C(C)(C)O)n1`, the viability, T/C (compound 0.0316 µM) is 114% and 117% and 102%; the viability, T/C (compound 0.1 µM) is 98.4% and 92.5% and 100%; the viability, T/C (compound 0.316 µM) was 87.5% and 73% and 83.4%; the viability, T/C (compound 1 µM) is 60% and 62% and 52.8%; the viability, T/C (compound 3.16 µM) was 32.2% and 34% and 37.9%; the viability, T/C (compound 10 µM) was 36.5% and 32.4% and 20.3%. For the same molecule, the IC50 (curve of compound) is 1580 nM and 1570 nM and 1380 nM.

`CC(C)(O)C1CCC(Nc2ccc3ncc(-c4cccc(C(F)(F)F)c4)n3n2)CC1` (stereo not given): the viability, T/C reads like this: (compound 0.0316 µM) 108% and 89.2% and 122%; (compound 0.1 µM) 113% and 90% and 91.5%; (compound 0.316 µM) 91.8% and 99.5% and 99.2%; (compound 1 µM) 98% and 96.9% and 84.3%; (compound 3.16 µM) 95.5% and 102% and 70.9%; (compound 10 µM) 119% and 110% and 103%. The IC50 (curve of compound) was > 10000 nM.

In the case of `CC[C@@]1(O)C(=O)OCc2c1cc1n(c2=O)Cc2cc3c(CN(C)C)c(O)ccc3nc2-1` + Cc1cnc(CNC(=O)c2c(=O)c3ccc(N4CCCN(C)CC4)nc3n3c2sc2ccccc23)cn1, the IC50 reads like this: under setting [1], > 316 nM; under setting [2], > 316 nM; under setting [3], > 316 nM; under setting [4], > 316 nM; under setting [5], > 316 nM; under setting [6], < 0.999 nM. Further, the viability, T/C was 127% (second compound 0.0316 µM, first compound 0.000999 µM); 86.3% (second compound 0.0316 µM, first compound 0.00316 µM); 96.4% (second compound 0.0316 µM, first compound 0.00999 µM); 86.7% under setting [7]; 98.5% (second compound 0.0316 µM, first compound 0.0999 µM); 81.3% under setting [8]. For the same molecule, the viability, T/C is 87.5% (second compound 0.1 µM, first compound 0.000999 µM); 116% (second compound 0.1 µM, first compound 0.00316 µM); 81.8% (second compound 0.1 µM, first compound 0.00999 µM); 101% under setting [9]; 88.2% (second compound 0.1 µM, first compound 0.0999 µM); 73.8% under setting [10]. The viability, T/C is, setting by setting: (second compound 0.316 µM, first compound 0.000999 µM) 106%; (second compound 0.316 µM, first compound 0.00316 µM) 92.8%; (second compound 0.316 µM, first compound 0.00999 µM) 103%; under setting [11], 84.9%; (second compound 0.316 µM, first compound 0.0999 µM) 92.4%; under setting [12], 82.2%. The viability, T/C was 76.2% (second compound 1 µM, first compound 0.000999 µM); 79.8% (second compound 1 µM, first compound 0.00316 µM); 89.5% (second compound 1 µM, first compound 0.00999 µM); 79.6% under setting [13]; 74.3% (second compound 1 µM, first compound 0.0999 µM); 76.6% under setting [14]. Besides, the viability, T/C runs as follows: (second compound 3.16 µM, first compound 0.000999 µM) 80.8%; (second compound 3.16 µM, first compound 0.00316 µM) 70.7%; (second compound 3.16 µM, first compound 0.00999 µM) 89.9%; under setting [15], 94.5%; (second compound 3.16 µM, first compound 0.0999 µM) 77.7%; under setting [16], 53.6%. Further, the viability, T/C is, setting by setting: (second compound 10 µM, first compound 0.000999 µM) 0.41%; (second compound 10 µM, first compound 0.00316 µM) 16.5%; (second compound 10 µM, first compound 0.00999 µM) 49.5%; under setting [17], 36.7%; (second compound 10 µM, first compound 0.0999 µM) 0.46%; under setting [18], 0.37%.

As for `COc1cccc2c1C(=O)c1c(O)c3c(c(O)c1C2=O)CC(O)(C(=O)CO)CC3OC1CC(N)C(O)C(C)O1` (stereo not given), the viability, T/C by setting is: (compound 0.0316 µM) 107% and 92.6% and 98%; (compound 0.1 µM) 99.6% and 107% and 89.3%; (compound 0.316 µM) 88.1% and 81.5% and 113%; (compound 1 µM) 75.9% and 86.5% and 81.4%; (compound 3.16 µM) 60.2% and 77% and 70.5%; (compound 10 µM) 21.2% and 28% and 20.3%. For the same molecule, the IC50 (curve of compound) is 3890 nM and 5820 nM and 4940 nM.

Values taken from PubChem BioAssay AID2060513 (Molecular Pharmacology Branch, DTP, NCI, 2025).
